One assay has as its system MOLM-13. The assay is described as follows: Antiproliferative activity against human MOLM13 cells assessed as reduction in cell viability measured after 48 hrs by CellTiter-Glo assay. It is filed as functional, cell-based. To be noted: MOLM-13, 48 h.
Assay [1] concerns MV4-11. In words: Antiproliferative activity against human MV4-11 cells assessed as reduction in cell viability measured after 48 hrs by CellTiter-Glo assay. Format: functional, cell-based. To be noted: MV4-11, 48 h. On the technique in general: Cellular ATP, detected with luciferase, serves as a proxy for viable cell number.
Assay [2] has as its target T1, Bromodomain-containing protein 4 (Homo sapiens, UniProt O60885). The assay is described as follows: Binding affinity to recombinant human N-terminal His-tagged BRD4 BD1 (44 to 170 residues) expressed in Escherichia coli using H4K5AcK8Ac as substrate measured after 30 mins by AlphaScreen assay. On the technique in general: Alpha assays give light when donor and acceptor beads are brought close together.

The target in assay [3] is T1, Bromodomain-containing protein 4. In words: Binding affinity to recombinant human N-terminal His-tagged BRD4 BD2 (349 to 460 residues) expressed in Escherichia coli measured after 30 mins by AlphaScreen assay.
The target is the same in assay [4]. The assay is described as follows: Selectivity index, ratio of IC50 for BRD4 BD2 (unknown origin) to IC50 for BRD4 BD1 (unknown origin).
The test system of assay [5] is MV4-11. The assay is described as follows: Induction of apoptosis in human MV4-11 cells at 10 uM measured after 24 hrs by Annexin V-FITC/propidium iodide staining based FACScan flow cytometry relative to control. Format: functional. (Flow cytometry measures light scatter and fluorescence of single cells or particles in a stream.)
Assay [6] deals with T2, Protein cereblon/Bromodomain-containing protein 4/Cullin-4A (Homo sapiens) (UniProt O60885+Q96SW2+Q13619). In words: Protac activity at cereblon/cullin4A/BRD4 in human MV4-11 cells assessed as induction of BRD4 degradation at 100 nM measured after 1 to 4 hrs by Western blot analysis. Format: cell-based.
Assay [7] deals with T2, Protein cereblon/Bromodomain-containing protein 4/Cullin-4A (Homo sapiens). The assay is described as follows: Protac activity at cereblon/cullin4A/BRD4 in human MV4-11 cells assessed as induction of BRD4 degradation at 500 nM measured after 18 hrs by Western blot analysis relative to control. It is filed as cell-based.
Assay [8] has the same target. In words: Protac activity at cereblon/cullin4A/BRD4 in human MV4-11 cells assessed as induction of BRD4 degradation at 100 nM measured after >= 8 hrs by Western blot analysis. It is filed as cell-based.
For assay [9] the target is unchanged. The assay is described as follows: Protac activity at cereblon/cullin4A/BRD4 in human MV4-11 cells assessed as downregulation of c-Myc at 50 nM measured after 18 hrs by Western blot analysis. It is filed as cell-based.

Activity calls are given as the source filed them. The rule behind the calls is not given here. Some results are limits rather than exact numbers.

As for `COc1ccccc1S(=O)(=O)Nc1ccc2c3c(cc(CCC(=O)NCCCCCCNc4cccc5c4C(=O)N(C4CCC(=O)NC4=O)C5=O)cc13)C(=O)N2C` (centres undefined), the IC50 is above 10000 nM with MOLM-13 and 3430 nM with MV4-11 [1].

Take `COc1ccccc1S(=O)(=O)Nc1ccc2c3c(cc(CCC(=O)NCCNc4cccc5c4C(=O)N(C4CCC(=O)NC4=O)C5=O)cc13)C(=O)N2C` (centres undefined): the IC50 was above 10000 nM in the assay with MOLM-13 and 1650 nM in the assay on MV4-11 [1].

As for `Cc1sc2c(c1C)C(c1ccc(Cl)cc1)=N[C@@H](CC(=O)OC(C)(C)C)c1nnc(C)n1-2`, the IC50 in the assay with MV4-11 [1] came out at 80.8 nM.

In the case of `COc1ccccc1S(=O)(=O)Nc1ccc2c3c(cc(CCC(=O)NCCCCCNc4cccc5c4C(=O)N(C4CCC(=O)NC4=O)C5=O)cc13)C(=O)N2C` (centres undefined), the IC50 in the assay with MOLM-13 was 177 nM; with MV4-11 [1], 32.2 nM.

Take `COC(=O)CCc1cc2c3c(ccc(NS(=O)(=O)c4ccccc4OC)c3c1)N(C)C2=O`: the figures for the IC50 in [2] and in assay [3] were 365 nM and 3690 nM, respectively.

As to `COc1ccccc1S(=O)(=O)Nc1ccc2c3c(cccc13)C(=O)N2C`, in [4], the Ratio IC50 amounted to 50. Moreover, the IC50 with MOLM-13 amounted to 3370 nM; in the assay with MV4-11 [1], 370 nM. The Activity in the assay with MV4-11 [5] was 86.07%.

`COc1ccccc1S(=O)(=O)Nc1ccc2c3c(cc(CCC(=O)NCCCNc4cccc5c4C(=O)N(C4CCC(=O)NC4=O)C5=O)cc13)C(=O)N2C` (centres undefined): the result in [6], in assay [8] and in assay [9] was Active. The figures for the IC50 in the assay on MOLM-13 and in the assay on MV4-11 [1] were 180 nM and 25.2 nM, respectively. Besides, the Activity in [7] turned out to be 100%.

The term IC50 denotes the concentration at which inhibition is half-maximal.

For the origin of these results see ChEMBL document CHEMBL4609992, “Discovery of novel small molecule induced selective degradation of the bromodomain and extra-terminal (BET) bromodomain protein BRD4 and BRD2 with cellular potencies” (Bioorg Med Chem, 2020).
